# Measurements taken from patent US8927500B2, “Peptidomimetic macrocycles” (Aileron Therapeutics, Inc., priority 2012, dated 2015).
# Where a SMILES comes first, the peptide text is derived from it. Bridges are numbered along the chain shown (N, C = ends). [ ]: non-standard residue; d: D form. Phe(4-COOH) = N[C@@H](Cc1ccc(C(=O)O)cc1)C(=O)O; Phe(3,4-F2) = N[C@@H](Cc1ccc(F)c(F)c1)C(=O)O; R8 = C=CCCCCCC[C@@](C)(N)C(=O)O; Cba = N[C@@H](CC1CCC1)C(=O)O; S5 = C=CCCC[C@](C)(N)C(=O)O; Nle = CCCC[C@H](N)C(=O)O
# Assays:
# [1] = Circular dichroism (CD) analysis of alpha-helicity; assay type: physicochemical
# Protocol: To assay the helicity of peptidomimetic macrocycles, the compounds are dissolved in an aqueous solution (e.g. 50 mM potassium phosphate solution at pH 7, or distilled H2O, to concentrations of 25-50 μM). Circular dichroism (CD) spectra are obtained on a spectropolarimeter (e.g., Jasco J-710) using standard measurement parameters (e.g. temperature, 20° C.; wavelength, 190-260 nm; step resolution, 0.5 nm; speed, 20 nm/sec; accumulations, 10; response, 1 sec; bandwidth, 1 nm; path length, 0.1 cm). […] A Peltier temperature controller was used to maintain temperature control of the optical cell. Results are expressed as mean molar ellipticity [0] […] Peptide concentrations were determined by amino acid analysis. Stock solutions of peptides were prepared in benign CD buffer (20 mM phosphoric acid, pH 2). The stocks were used to prepare peptide solutions of 0.05 mg/ml in either benign CD buffer or CD buffer with 50% trifluoroethanol (TFE) for analyses in a 10 mm pathlength cell. […] The average of six scans was reported.
# MDM2 = MDM2 (Homo sapiens, UniProt Q00987); assay: Competitive fluorescence polarization assay for MDM2; assay type: binding; conditions: competitive FP assay, MDM2; for IC50: read-out: IC50 (MDM2); for Ki: read-out: Ki (MDM2)
# MDM2, sequence (Q00987 1-125): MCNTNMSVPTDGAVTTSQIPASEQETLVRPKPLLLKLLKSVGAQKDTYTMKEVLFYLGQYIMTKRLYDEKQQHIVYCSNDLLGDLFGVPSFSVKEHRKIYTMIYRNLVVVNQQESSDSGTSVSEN
# MDMX = molecular target: T1, MDMX (Homo sapiens, UniProt O15151); assay: Competitive fluorescence polarization assay for MDMX; assay type: binding; conditions: competitive FP assay; for IC50: read-out: IC50 (MDMX); for Ki: read-out: Ki (MDMX)
# T1 sequence (O15151 1-125): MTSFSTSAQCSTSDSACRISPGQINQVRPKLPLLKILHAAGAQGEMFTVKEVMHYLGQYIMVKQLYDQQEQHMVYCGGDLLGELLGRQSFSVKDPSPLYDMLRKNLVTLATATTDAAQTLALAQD
# Caspase 3 = Caspase 3 detection assay in SJSA1 cells; assay type: cell-based; conditions: 48 h, Caspase 3 activation over DMSO-treated cells; for caspase 0.3 uM: 0.3 uM peptide; for caspase 3 uM: 3 uM peptide; for caspase 10 uM: 10 uM peptide; for caspase 30 uM: 30 uM peptide; for caspase 1 uM: 1 uM peptide
# SJSA-1 cells = assay: Cell lysis by peptidomimetic macrocycles (LDH release); assay type: cell-based; conditions: 1 h at 37C
# Protocol: On the day of the assay, media was exchanged with RPMI 1% FBS media, 90 uL of media per well.
# 10 mM stock solutions of the peptidomimetic macrocycles were prepared in 100% DMSO.
# The negative control (non-lytic) sample was 0.5% DMSO alone and positive control (lytic) samples include 10 uM Melittin and 1% Triton X-100.
# Cell plates were incubated for 1 hour at 37C. After the 1 hour incubation, the morphology of the cells is examined by microscope and then the plates were centrifuged at 1200 rpm for 5 minutes at room temperature. 40 uL of supernatant for each peptidomimetic macrocycle and control sample is transferred to clear assay plates.
% Helix 50% TFE compared to 50% TFE parent (CD) ([1]; 50% TFE),"Molar Ellipticity 50% TFE (222 in 50% TFE) ([1]; CD buffer with 50% TFE, 222 nm, 4° C.)","Molar Ellipticity Benign (222 in 0% TFE) ([1]; benign CD buffer pH 2, 0% TFE, 222 nm, 4° C.)",% Helix benign compared to 50% TFE parent (CD) ([1]; benign buffer),Molar Ellipticity TFE-Molar Ellipticity Benign ([1]; difference 50% TFE minus benign),IC50 (MDM2),Ki (MDM2),IC50 (MDMX),Ki (MDMX),SMILES,caspase 0.3 uM (Caspase 3),caspase 3 uM (Caspase 3),caspase 10 uM (Caspase 3),caspase 30 uM (Caspase 3),6.25 uM % Lysed cells (1 h LDH) (SJSA-1 cells),25 uM % Lysed cells (1 h LDH) (SJSA-1 cells),50 uM % Lysed cells (1 h LDH) (SJSA-1 cells),caspase 1 uM (Caspase 3)
–,–,–,–,–,10 to 100 nM,< 10 nM,100 to 1000 nM,10 to 100 nM,CC(=O)N[C@@H](CC(C)C)C(=O)N[C@H](C(=O)N[C@@H](Cc1ccccc1)C(=O)N[C@]1(C)CCCCCCC=CCCC[C@@](C)(C(=O)N[C@@H](C)C(=O)N[C@@H](Cc2c[nH]cn2)C(=O)N[C@@H](Cc2ccccc2)C(=O)N[C@@H](C)C(N)=O)NC(=O)[C@H](CC(C)C)NC(=O)[C@H](C)NC(=O)[C@H](C)NC(=O)[C@H](Cc2c[nH]c3ccccc23)NC(=O)[C@H](Cc2ccc(O)cc2)NC(=O)[C@H](C)NC1=O)[C@@H](C)O [compound 204] (Ac-LTF[R8]AYWAAL[S5]AHFA-NH2; staple 4-11),1,4,10,10,4%,2%,0%,–
–,–,–,–,–,10 to 100 nM,< 10 nM,10 to 100 nM,10 to 100 nM,"CCCC[C@H](NC(=O)[C@H](C)NC(=O)[C@H](CO)NC(=O)[C@]1(C)CCCC=CCCCCCC[C@@](C)(NC(=O)[C@H](Cc2ccc(F)c(F)c2)NC(=O)[C@@H](NC(=O)[C@H](CC(C)C)NC(C)=O)[C@@H](C)O)C(=O)N[C@@H](CCC(=O)O)C(=O)N[C@@H](Cc2ccc(O)cc2)C(=O)N[C@@H](Cc2c[nH]c3ccccc23)C(=O)N[C@@H](C)C(=O)N[C@@H](CCC(N)=O)C(=O)N[C@@H](CC2CCC2)C(=O)N1)C(=O)N[C@@H](C)C(N)=O [compound 243] (Ac-LT[Phe(3,4-F2)][R8]EYWAQ[Cba][S5]SA[Nle]A-NH2; staple 4-11)",1,2,5,23,4%,39%,64%,–
–,–,–,–,–,10 to 100 nM,< 10 nM,10 to 100 nM,< 10 nM,CCCC[C@H](NC(=O)[C@H](C)NC(=O)[C@H](CO)NC(=O)[C@]1(C)CCCC=CCCCCCC[C@@](C)(NC(=O)[C@H](Cc2ccccc2)NC(=O)[C@@H](NC(=O)[C@H](CC(C)C)NC(C)=O)[C@@H](C)O)C(=O)N[C@@H](CCC(=O)O)C(=O)N[C@@H](Cc2ccc(C(=O)O)cc2)C(=O)N[C@@H](Cc2c[nH]c3ccccc23)C(=O)N[C@@H](C)C(=O)N[C@@H](CCC(N)=O)C(=O)N[C@@H](CC2CCC2)C(=O)N1)C(=O)N[C@@H](C)C(N)=O [compound 244] (Ac-LTF[R8]E[Phe(4-COOH)]WAQ[Cba][S5]SA[Nle]A-NH2; staple 4-11),1,2,7,17,0%,0%,4%,–
–,–,–,–,–,10 to 100 nM,< 10 nM,10 to 100 nM,10 to 100 nM,CCCC[C@H](NC(=O)[C@H](C)NC(=O)[C@H](CO)NC(=O)[C@]1(C)CCCC=CCCCCCC[C@@](C)(NC(=O)[C@H](Cc2ccccc2)NC(=O)[C@@H](NC(=O)[C@H](CC(C)C)NC(C)=O)[C@@H](C)O)C(=O)N[C@@H](CCC(=O)O)C(=O)N[C@@H](Cc2ccc(O)cc2)C(=O)N[C@@H](Cc2c[nH]c3ccccc23)C(=O)N[C@@H](CO)C(=O)N[C@@H](CCC(N)=O)C(=O)N[C@@H](CC2CCC2)C(=O)N1)C(=O)N[C@@H](C)C(N)=O [compound 245] (Ac-LTF[R8]EYWSQ[Cba][S5]SA[Nle]A-NH2; staple 4-11),1,3,9,16,1%,11%,56%,–
–,–,–,–,–,< 10 nM,< 10 nM,10 to 100 nM,< 10 nM,CC(=O)N[C@@H](CC(C)C)C(=O)N[C@H](C(=O)N[C@@H](Cc1ccccc1)C(=O)N[C@]1(C)CCCCCC/C=C/CCC[C@@](C)(C(=O)N[C@@H](C)C(=O)N[C@@H](C)C(=O)N[C@@H](C)C(=O)N[C@@H](C)C(=O)N[C@@H](C)C(=O)N[C@H](C)C(N)=O)NC(=O)[C@H](CC2CCC2)NC(=O)[C@H](CCC(N)=O)NC(=O)[C@H](C)NC(=O)[C@H](Cc2c[nH]c3ccccc23)NC(=O)[C@H](Cc2ccc(C(=O)O)cc2)NC(=O)[C@H](CCC(=O)O)NC1=O)[C@@H](C)O [compound 349] (Ac-LTF[R8]E[Phe(4-COOH)]WAQ[Cba][S5]AAAAA[dA]-NH2; staple (E) 4-11),1,11,16,24,0%,0%,0%,8

# Second part, the molecule before the results:
SMILES,% Helix 50% TFE compared to 50% TFE parent (CD) ([1]; 50% TFE),"Molar Ellipticity 50% TFE (222 in 50% TFE) ([1]; CD buffer with 50% TFE, 222 nm, 4° C.)","Molar Ellipticity Benign (222 in 0% TFE) ([1]; benign CD buffer pH 2, 0% TFE, 222 nm, 4° C.)",% Helix benign compared to 50% TFE parent (CD) ([1]; benign buffer),Molar Ellipticity TFE-Molar Ellipticity Benign ([1]; difference 50% TFE minus benign),IC50 (MDM2),Ki (MDM2),IC50 (MDMX),Ki (MDMX),caspase 0.3 uM (Caspase 3),caspase 3 uM (Caspase 3),caspase 10 uM (Caspase 3),caspase 30 uM (Caspase 3),6.25 uM % Lysed cells (1 h LDH) (SJSA-1 cells),25 uM % Lysed cells (1 h LDH) (SJSA-1 cells),50 uM % Lysed cells (1 h LDH) (SJSA-1 cells),caspase 1 uM (Caspase 3)
CCCC[C@H](NC(=O)[C@H](CCC(N)=O)NC(=O)[C@H](CCC(N)=O)NC(=O)[C@]1(C)CCCC=CCCCCCC[C@@](C)(NC(=O)[C@H](Cc2ccccc2)NC(C)=O)C(=O)N[C@@H](C)C(=O)N[C@@H](Cc2ccc(O)cc2)C(=O)N[C@@H](Cc2c[nH]c3ccccc23)C(=O)N[C@@H]([C@@H](C)O)C(=O)N[C@@H](C)C(=O)N[C@@H](CC(C)C)C(=O)N1)C(=O)N[C@@H](C(N)=O)C(C)C [compound 41] (Ac-F[R8]AYWTAL[S5]QQ[Nle][dV]-NH2; staple 2-9),136%,−21319.4 deg cm2 dmol-1,−909 deg cm2 dmol-1,5.8%,20410.4 deg cm2 dmol-1,100 to 1000 nM,10 to 100 nM,10 to 100 nM,10 to 100 nM,–,–,–,–,–,–,–,–
CCCC[C@H](NC(=O)[C@H](C)NC(=O)[C@H](C)NC(=O)[C@]1(C)CCCC=CCCCCCC[C@@](C)(NC(=O)[C@H](Cc2ccccc2)NC(=O)[C@@H](NC(=O)[C@H](CCC(=O)O)NC(C)=O)[C@@H](C)O)C(=O)N[C@@H](C)C(=O)N[C@@H](Cc2ccc(O)cc2)C(=O)N[C@@H](Cc2c[nH]c3ccccc23)C(=O)N[C@@H](C)C(=O)N[C@@H](CCC(N)=O)C(=O)N[C@@H](CC2CCC2)C(=O)N1)C(=O)N[C@@H](C)C(N)=O [compound 237] (Ac-ETF[R8]AYWAQ[Cba][S5]AA[Nle]A-NH2; staple 4-11),–,–,–,–,–,10 to 100 nM,< 10 nM,100 to 1000 nM,10 to 100 nM,1,5,9,15,0%,7%,55%,–
CC[C@H](C)[C@H](NC(=O)[C@H](C)NC(=O)[C@H](C)NC(=O)[C@]1(C)CCCC=CCCCCCC[C@@](C)(NC(=O)[C@H](Cc2ccccc2)NC(=O)[C@@H](NC(=O)[C@H](CC(C)C)NC(C)=O)[C@@H](C)O)C(=O)N[C@@H](CCC(=O)O)C(=O)N[C@@H](Cc2ccc(O)cc2)C(=O)N[C@@H](Cc2c[nH]c3ccccc23)C(=O)N[C@@H](C)C(=O)N[C@@H](CCC(N)=O)C(=O)N[C@@H](CC2CCC2)C(=O)N1)C(=O)N[C@H](C)C(N)=O [compound 247] (Ac-LTF[R8]EYWAQ[Cba][S5]AAI[dA]-NH2; staple 4-11),–,–,–,–,–,10 to 100 nM,< 10 nM,10 to 100 nM,10 to 100 nM,1,3,11,24,0%,0%,4%,–
CC[C@H](C)[C@H](NC(=O)[C@H](C)NC(=O)[C@H](C)NC(=O)[C@]1(C)CCC/C=C/CCCCCC[C@@](C)(NC(=O)[C@H](Cc2ccccc2)NC(=O)[C@@H](NC(=O)[C@H](CC(C)C)NC(C)=O)[C@@H](C)O)C(=O)N[C@@H](CCC(=O)O)C(=O)N[C@@H](Cc2ccc(C(=O)O)cc2)C(=O)N[C@@H](Cc2c[nH]c3ccccc23)C(=O)N[C@@H](C)C(=O)N[C@@H](CCC(N)=O)C(=O)N[C@@H](CC2CCC2)C(=O)N1)C(=O)N[C@H](C)C(N)=O [compound 249] (Ac-LTF[R8]E[Phe(4-COOH)]WAQ[Cba][S5]AAI[dA]-NH2; staple (E) 4-11),–,–,–,–,–,10 to 100 nM,< 10 nM,10 to 100 nM,< 10 nM,2,5,11,23,0%,0%,0%,–
CC(=O)N[C@@H](CC(C)C)C(=O)N[C@H](C(=O)N[C@@H](Cc1ccccc1)C(=O)N[C@]1(C)CCCCCC/C=C/CCC[C@@](C)(C(=O)N[C@@H](C)C(=O)N[C@@H](C)C(=O)N[C@@H](C)C(=O)N[C@@H](C)C(=O)N[C@@H](C)C(=O)N[C@H](C)C(N)=O)NC(=O)[C@H](CC2CCC2)NC(=O)[C@H](CCC(N)=O)NC(=O)[C@H](CO)NC(=O)[C@H](Cc2c[nH]c3ccccc23)NC(=O)[C@H](Cc2ccc(O)cc2)NC(=O)[C@H](CCC(=O)O)NC1=O)[C@@H](C)O [compound 351] (Ac-LTF[R8]EYWSQ[Cba][S5]AAAAA[dA]-NH2; staple (E) 4-11),–,–,–,–,–,< 10 nM,< 10 nM,10 to 100 nM,< 10 nM,3,13,15,24,0%,0%,0%,9
